# Test system: Diet-Induced Obese (DIO) mice
# Experiment: Assessment of D5D inhibitor in Diet-Induced Obese (DIO) mice
# Type: in vivo, Male C57BL/6J DIO mice
# Conditions: for Fat mass / Lean mass: day 78, EchoMRI; for Blood glucose: day 81, non-fasted; for AA / DGLA: day 81, non-fasted plasma; for Body weight / Liver weights / epididymal WAT / inguinal WAT / mesenteric WAT: day 84; for Adiponectin / Cholesterol / Insulin / LDL cholesterol / Leptin / Resisten / Triglycerides: day 84, 4-hour fasted plasma
# Source text: Assessment of D5D Inhibitor in Diet-Induced Obese (DIO) Mice
# Male C57BL/6J DIO mice (Jackson Laboratories, Stock No.: 380050) were fed high-fat diet (Research Diets, Inc., D12492) for 12 weeks. All animals were given free access to water and chow. Animals were acclimated to per os dosing for 3 days prior to the start of the experiment. Animals were randomized on body weight, fat mass, lean mass, and blood glucose concentrations in to groups of 8 to 10 animals per group. Animals were twice daily dosed per os with either: vehicle (2% hydroxypropyl methylcellulose and 1% tween 80 in water), Example 2 at 10 mg/kg, or 30 mg/kg (formulated in 2% hydroxypropyl methylcellulose and 1% tween 80 in water), or Example 45 at 3 mg/kg, or 10 mg/kg (formulated in 2% hydroxypropyl methylcellulose and 1% tween 80 in water). Three-day average (Example 2) or daily average (Example 45) food consumption was measured at the indicated times as shown in Table 17 and Table 18. Body composition (EchoMRI) was determined on day 78 for Example 2 and day 22 for Example 45. For Example 2, a non-fasted blood collection was performed on day 81; blood glucose was immediately measured, and plasma samples created from the remaining blood and used to measure DGLA and AA concentrations. On day 84, a 4-hour fasted blood collection was performed, and plasma samples were created from the blood and used to measure cholesterol, triglycerides, low-density lipoprotein (LDL) cholesterol, insulin, and adipokine (adiponectin, leptin, and resistin) levels. For Example 45, 4 hour fasted blood samples were collected on day 25 and blood glucose was measured immediately and the plasma samples created from the remaining blood were used to measure cholesterol, triglycerides, LDL cholesterol, insulin, DGLA and AA concentration. At the end of the studies, liver, epididymal white adipose tissue, inguinal white adipose tissue, mesenteric (only Example 2) white adipose tissue weights were recorded. Data was analyzed using GraphPad Prism v 7.04.
# The D5D inhibitor dose-dependently led to weight loss over the course of the experiment (Table 17 and Table 18) compared to vehicle controls. Consistently fat mass was reduced, along with lower inguinal, epididymal and mesenteric white adipose tissue (WAT) weights at necropsy. Blood glucose and plasma insulin levels were both reduced by the D5D inhibitor, along with reductions in plasma cholesterol and triglycerides. Evidence of target engagement was established by observing increases in plasma DGLA and decreases in plasma AA.
# [1] = Example 2 10 mg/kg twice daily per os
# [2] = Example 2 30 mg/kg twice daily per os
compound,measurement,setting,value
"Cc1nn2c(=O)c(-c3cnn(CC(F)(F)C(F)(F)F)c3)c(C(F)(F)F)nc2s1 [Example 2, 2-methyl-6-[1-(2,2,3,3,3-pentafluoropropyl)-1H-pyrazol-4-yl]-7-(trifluoromethyl)-5H-[1,3,4]thiadiazolo[3,2-a]pyrimidin-5-one]",Fat mass,[1],11.4 ± 0.6 g
same,Lean mass,[1],26.4 ± 0.6 g
same,Blood glucose,[1],165.3 ± 4.6 mg/dL
same,AA,[1],14.5 ± 0.9 µg/mL
same,DGLA,[1],167.8 µg/mL
same,Body weight,[1],38.1 ± 1.0 g
same,Liver weights,[1],3.0 ± 0.2 g
same,epididymal WAT,[1],1.2 ± 0.1 g
same,inguinal WAT,[1],1.2 ± 0.1 g
same,mesenteric WAT,[1],0.4 ± 0.0 g
same,Adiponectin,[1],48.3 ± 17.7 ng/mL
same,Cholesterol,[1],224.5 ± 7.3 mg/dL
same,Insulin,[1],1.8 ± 0.3 ng/mL
same,LDL cholesterol,[1],85.9 ± 3.8 mg/dL
same,Leptin,[1],10.7 ± 3.6 ng/mL
same,Resisten,[1],0.9 ± 0.2 ng/mL
same,Triglycerides,[1],14.3 ± 1.2 mg/dL
same,Food consumption,"Example 2 10 mg/kg twice daily per os, days 0-2, three-day average",2.5 ± 0.2 g/day
same,Food consumption,"Example 2 10 mg/kg twice daily per os, days 70-72, three-day average",2.5 ± 0.1 g/day
same,Fat mass,[2],5.7 ± 0.6 g
same,Lean mass,[2],26.1 ± 0.4 g
same,Blood glucose,[2],152.1 mg/dL
same,AA,[2],10.7 ± 0.6 µg/mL
same,DGLA,[2],137.7 µg/mL
same,Body weight,[2],32.3 ± 0.9 g
same,Liver weights,[2],3.2 ± 0.1 g
same,epididymal WAT,[2],0.75 ± 0.1 g
same,inguinal WAT,[2],0.5 ± 0.1 g
same,mesenteric WAT,[2],0.2 ± 0.0 g
same,Adiponectin,[2],51.0 ± 24.4 ng/mL
same,Cholesterol,[2],207.5 mg/dL
same,Insulin,[2],1.4 ± 0.2 ng/mL
same,LDL cholesterol,[2],80.6 ± 3.9 mg/dL
same,Leptin,[2],3.2 ± 1.6 ng/mL
same,Resisten,[2],0.7 ± 0.2 ng/mL
same,Triglycerides,[2],12.8 ± 1.0 mg/dL
same,Food consumption,"Example 2 30 mg/kg twice daily per os, days 0-2, three-day average",2.5 ± 0.2 g/day
same,Food consumption,"Example 2 30 mg/kg twice daily per os, days 70-72, three-day average",2.7 ± 0.1 g/day

# — patent publication US11512097B2, “Heterocyclic compounds as Delta-5 desaturase inhibitors and methods of use” (Amgen Inc., priority 2019, dated 2022)
